This is an account of results in paper PMC3390922 (The Journal of Neuroscience, 2010).

For data set [1] the following is noted: in vivo; cited from earlier work.
Data set [2] addresses α6* nAChRs (αCtxMII-sensitive, α6β2*) (Mus musculus, UniProt Q9ERK7+Q9R0W9).
Data set [3] deals with α6α4β2β3 nAChRs. Particulars: cited from earlier work.
The target in data set [4] is α6* nAChRs (αCtxMII-sensitive) in α4KO mice (Mus musculus, UniProt Q9ERK7+Q9R0W9).
For data set [5], the target named is (non-α6) α4β2* nAChRs in α6^L9′S mice (Mus musculus, UniProt O70174+Q9ERK7).
Data set [6] deals with (non-α6) α4β2* nAChRs (Mus musculus, UniProt O70174+Q9ERK7).
The subject of data set [7] is WT, α6^L9′S, α4KO, and α4KO/α6^L9′S mice. Particulars: mouse, in vivo.
Data set [8] concerns the target α6* nAChRs (αCtxMII-sensitive) in α4KO/α6^L9′S mice (Mus musculus, UniProt Q9ERK7+Q9R0W9, L280S).
Data set [9] concerns the target D2/D3 dopamine receptors. The data set is described as follows: Saturation binding of [3H]-raclopride to membranes. Details: species or system mouse. The conditions noted are these: membranes from C57Bl/6 mice (data not shown).
In data set [10] the target is D1/D5 dopamine receptors. As to the kind of experiment: Saturation binding of [3H]-SCH23390 to membranes. Also on record: species or system mouse. Particulars: membranes from C57Bl/6 mice (data not shown).
Data set [11] relates to DA release in striatal slices. Details: species or system mouse.

Where “and” joins values, the source holds several entries; their conditions need not be identical. Identical values can stand only once. Counter-ions that a name gives are not always drawn.

α6* nAChRs (αCtxMII-sensitive, α6β2*), sequence (Q9R0W9 31-494): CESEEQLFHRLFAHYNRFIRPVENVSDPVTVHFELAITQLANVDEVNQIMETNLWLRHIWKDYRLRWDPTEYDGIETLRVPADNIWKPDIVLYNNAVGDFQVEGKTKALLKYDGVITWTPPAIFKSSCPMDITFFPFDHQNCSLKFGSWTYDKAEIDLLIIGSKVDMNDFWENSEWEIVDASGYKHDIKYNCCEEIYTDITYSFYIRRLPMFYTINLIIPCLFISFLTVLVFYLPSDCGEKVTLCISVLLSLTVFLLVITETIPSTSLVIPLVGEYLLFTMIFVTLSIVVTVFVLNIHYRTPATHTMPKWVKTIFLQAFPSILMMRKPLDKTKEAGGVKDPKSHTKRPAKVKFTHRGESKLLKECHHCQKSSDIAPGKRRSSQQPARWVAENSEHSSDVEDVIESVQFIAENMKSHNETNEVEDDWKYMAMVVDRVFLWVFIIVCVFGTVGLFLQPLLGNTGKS
α6* nAChRs (αCtxMII-sensitive, α6β2*), sequence (Q9ERK7 26-501): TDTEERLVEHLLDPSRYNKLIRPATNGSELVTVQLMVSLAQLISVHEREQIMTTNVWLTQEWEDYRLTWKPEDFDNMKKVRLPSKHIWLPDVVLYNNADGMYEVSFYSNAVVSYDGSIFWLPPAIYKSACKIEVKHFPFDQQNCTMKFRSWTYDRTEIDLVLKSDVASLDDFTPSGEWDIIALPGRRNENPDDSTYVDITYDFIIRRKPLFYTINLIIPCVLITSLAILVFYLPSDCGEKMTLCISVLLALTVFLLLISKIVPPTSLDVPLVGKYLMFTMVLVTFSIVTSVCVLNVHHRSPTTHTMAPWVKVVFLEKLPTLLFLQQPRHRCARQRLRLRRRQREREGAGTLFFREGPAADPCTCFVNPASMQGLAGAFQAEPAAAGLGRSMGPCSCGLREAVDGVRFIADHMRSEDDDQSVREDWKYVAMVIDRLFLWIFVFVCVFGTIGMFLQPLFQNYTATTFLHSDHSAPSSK
α6* nAChRs (αCtxMII-sensitive, α6β2*), sequence (O70174 31-629, further chain): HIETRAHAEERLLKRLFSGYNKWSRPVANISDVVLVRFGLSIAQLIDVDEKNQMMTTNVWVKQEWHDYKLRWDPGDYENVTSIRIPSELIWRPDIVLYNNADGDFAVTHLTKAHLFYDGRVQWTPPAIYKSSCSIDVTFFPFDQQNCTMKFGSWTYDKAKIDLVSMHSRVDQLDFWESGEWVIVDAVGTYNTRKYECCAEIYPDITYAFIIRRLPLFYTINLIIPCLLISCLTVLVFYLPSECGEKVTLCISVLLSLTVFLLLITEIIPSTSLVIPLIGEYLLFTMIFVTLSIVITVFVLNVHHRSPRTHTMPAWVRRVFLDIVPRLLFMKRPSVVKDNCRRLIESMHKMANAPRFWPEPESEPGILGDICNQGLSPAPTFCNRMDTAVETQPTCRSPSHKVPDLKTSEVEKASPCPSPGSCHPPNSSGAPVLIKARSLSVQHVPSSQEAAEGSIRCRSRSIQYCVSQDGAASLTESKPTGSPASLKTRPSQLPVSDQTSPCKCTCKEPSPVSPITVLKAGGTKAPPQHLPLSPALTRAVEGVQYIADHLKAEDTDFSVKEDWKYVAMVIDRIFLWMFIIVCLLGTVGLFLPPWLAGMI
α6* nAChRs (αCtxMII-sensitive, α6β2*), sequence (Q8BMN3 31-464, further chain): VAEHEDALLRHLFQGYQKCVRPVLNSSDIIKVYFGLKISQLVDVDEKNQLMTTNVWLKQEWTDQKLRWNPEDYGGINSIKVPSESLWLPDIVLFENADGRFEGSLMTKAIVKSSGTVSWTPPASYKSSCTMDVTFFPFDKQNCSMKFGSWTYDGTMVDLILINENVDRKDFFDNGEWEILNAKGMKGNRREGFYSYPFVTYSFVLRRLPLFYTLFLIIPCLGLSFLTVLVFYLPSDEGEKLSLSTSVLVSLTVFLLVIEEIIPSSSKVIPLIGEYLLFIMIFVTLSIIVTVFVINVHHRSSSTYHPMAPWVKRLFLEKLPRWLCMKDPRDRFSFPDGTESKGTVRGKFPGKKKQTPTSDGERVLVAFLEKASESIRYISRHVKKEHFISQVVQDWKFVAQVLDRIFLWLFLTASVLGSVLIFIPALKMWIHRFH
(non-α6) α4β2* nAChRs in α6^L9′S mice, sequence (O70174 31-629): as the sequence (O70174 31-629, further chain) above
(non-α6) α4β2* nAChRs in α6^L9′S mice, sequence (Q9ERK7 26-501): as the sequence (Q9ERK7 26-501) above
(non-α6) α4β2* nAChRs, sequence (O70174 31-629): as the sequence (O70174 31-629, further chain) above
(non-α6) α4β2* nAChRs, sequence (Q9ERK7 26-501): as the sequence (Q9ERK7 26-501) above
α6* nAChRs (αCtxMII-sensitive) in α4KO/α6^L9′S mice, sequence (Q9ERK7 26-501, stated change not applied): as the sequence (Q9ERK7 26-501) above
α6* nAChRs (αCtxMII-sensitive) in α4KO/α6^L9′S mice, sequence (Q8BMN3 31-464, further chain): as the sequence (Q8BMN3 31-464, further chain) above
α6* nAChRs (αCtxMII-sensitive) in α4KO/α6^L9′S mice, sequence (Q9R0W9 31-494 L280S): as the sequence (Q9R0W9 31-494) above, with L250S counted along it
α6* nAChRs (αCtxMII-sensitive) in α4KO mice, sequence (Q9ERK7 26-501): as the sequence (Q9ERK7 26-501) above
α6* nAChRs (αCtxMII-sensitive) in α4KO mice, sequence (Q8BMN3 31-464, further chain): as the sequence (Q8BMN3 31-464, further chain) above
α6* nAChRs (αCtxMII-sensitive) in α4KO mice, sequence (Q9R0W9 31-494): as the sequence (Q9R0W9 31-494) above

Regarding `CN1CCC[C@H]1c1cccnc1` [nicotine, (-)-nicotine tartrate], in [1], the “concentration in brain CSF” value was 100 to 500 nM. The Rmax in [2] is 4.6 ± 0.3 units and 3.2 ± 0.3 units; in data set [4], 3.83 ± 0.13 units and 3.63 ± 0.15 units; in data set [5], 7.8 ± 0.2 units and 7.4 ± 0.4 units; in data set [6], 15.8 ± 0.5 units and 14.5 ± 0.5 units; in [8], 5.24 ± 0.24 units and 4.16 ± 0.06 units. The EC50 in data set [3] was 230 nM. For the same molecule, the “potency and efficacy for locomotor activation” value in data set [7] is on record as “consistently reduced”. Also, in data set [7] (ip, 0.2 mg/kg), the peak locomotor response is 93 ± 14 ambulations/min and 53 ± 4 ambulations/min.

Molecule `CCN1CCC[C@H]1CNC(=O)c1c(O)c(Cl)cc(Cl)c1OC` [[^3H]-raclopride] displayed a Kd in [9] of roughly 2 nM.

`CN1CCc2cc(Cl)c(O)cc2[C@@H](c2ccccc2)C1` [[^3H]-SCH23390] gave a Kd in data set [10] of roughly 0.1 nM.

`NC1=N[C@H](O)[C@H]2[C@H]3O[C@]4(O)O[C@@H]([C@@H](O)[C@@]2(N1)[C@@H]4O)[C@]3(O)CO` [tetrodotoxin]: the “effect on evoked DA release responses” value in data set [11] is “blocked”.

One may read the EC50 as the concentration giving half of the maximal effect. Broadly, the Kd is a measure of binding affinity in units of concentration. Read a high Kd as weaker binding.
